# According to patent US12377077B2, “Methods and formulations to treat mitochondrial dysfunction” (The Board of Trustees of the Leland Stanford Junior …, priority 2018, dated 2025):
# “Also recorded” adds a separate entry of the source.
# How the values were obtained:
# [1] = tested on: pAMPK; experiment: pAMPK western blot after siRNA knockdown of PRKAA1 in COX10 deficient fibroblasts; type: cell-based, human; details: siAMPK+PT1 compared to siCNT+PT1
# Description: Methods: Western blotting was performed to identify pAMPK levels in cells treated with PT1. Cells were lysed with RIPA buffer supplemented with Na-Orthovanadate, PMSF, and Protease Inhibitor cocktail. Whole cell extracts were fractionated by SDS-PAGE and transferred to a polyvinylidene difluoride membrane using a transfer apparatus according to the manufacturer's protocols (Bio-Rad). After incubation with 5% nonfat milk in TBST (10 mM Tris, pH 8.0, 150 mM NaCl, 0.5% Tween 20) for 60 min, the membrane was washed once with TBST and incubated with antibodies against AMPK (1:1,000), pAMPK (1:1,000), actin (1:10,000) at 4° C. overnight. […]
# To test whether the cellular response to PT1 is a result of AMPK activation itself, or is merely a result of nonspecific interactions, an siRNA knockdown strategy was used. siRNA for PRKAA1 (s101) and a negative control (Life Technologies) were incubated with Hiperfect reagent (Qiagen) in media containing DMEM, 1% Penicillin-Streptomycin (10,000 U/mL) (Life Technologies), 1% glutaMAX (Life Technologies) but no serum and allowed to complex for 10 min at room temperature. […] At the end of the incubation period, the cells were analyzed for levels of AMPK and pAMPK by western blot analysis (see protocol above) or incubated for six additional days with PT1 (or DMSO as untreated control) and assessed for viability by Calcein AM. […]
# [2] = tested on: pAMPK; experiment: pAMPK western blot time course in SURF1 deficient fibroblasts; type: cell-based, human
# Description: Methods: Western blotting was performed to identify pAMPK levels in cells treated with PT1. Cells were lysed with RIPA buffer supplemented with Na-Orthovanadate, PMSF, and Protease Inhibitor cocktail. Whole cell extracts were fractionated by SDS-PAGE and transferred to a polyvinylidene difluoride membrane using a transfer apparatus according to the manufacturer's protocols (Bio-Rad). After incubation with 5% nonfat milk in TBST (10 mM Tris, pH 8.0, 150 mM NaCl, 0.5% Tween 20) for 60 min, the membrane was washed once with TBST and incubated with antibodies against AMPK (1:1,000), pAMPK (1:1,000), actin (1:10,000) at 4° C. overnight. Membranes were washed three times for 5 min and incubated with a 1:10,000 dilution of horseradish peroxidase-conjugated anti-mouse or anti-rabbit antibodies for 2 h. Blots were washed with TBST three times and developed with the ECL system (Thermo Scientific) according to the manufacturer's protocols.
# [3] = tested on: COX10 deficient fibroblasts; experiment: Cell viability (Calcein AM) in siRNA knockdown study; type: cell-based, human; details: PT1 alone and siCNT+PT1 vs DMSO and siAMPK+PT1; FIG. 4B
# Description: Methods: Cell growth was measured by a fluorometric method using Calcein AM (Anaspec). Mitochondrial stressor media was removed, wells washed with PBS and then incubated with 500 ul/well of 800 nM Calcein AM in PBS for 30 min at 37 C, 5% CO2. Cell viability was measured by values obtained using a 485 nm excitation with the Flouroskan Ascent Microplate Fluorometer (Thermo Scientific).
# To test whether the cellular response to PT1 is a result of AMPK activation itself, or is merely a result of nonspecific interactions, an siRNA knockdown strategy was used. siRNA for PRKAA1 (s101) and a negative control (Life Technologies) were incubated with Hiperfect reagent (Qiagen) in media containing DMEM, 1% Penicillin-Streptomycin (10,000 U/mL) (Life Technologies), 1% glutaMAX (Life Technologies) but no serum and allowed to complex for 10 min at room temperature. […] At the end of the incubation period, the cells were analyzed for levels of AMPK and pAMPK by western blot analysis (see protocol above) or incubated for six additional days with PT1 (or DMSO as untreated control) and assessed for viability by Calcein AM. COX10-deficient fibroblasts were treated with PT1 and either siAMPK or siCNT, and responses were evaluated for pAMPK protein expression by western blotting (FIG. 4A), cell viability by Calcein AM fluorescence assay (FIG. 4B), and cell morphology by phase contrast microscopy (FIGS. 4C-4F)
# [4] = tested on: NGLY1 deficient fibroblasts; experiment: Lipofuscin levels; type: cell-based, human; details: FIG. 8B
# [5] = tested on: SURF1-deficient fibroblasts; experiment: Cell viability by Calcein AM in mitochondrial stressor media; type: cell-based, human; details: SURF1-deficient fibroblasts; FIG. 2A
# Description: (§1) Fibroblasts previously derived from four patients with primary mitochondrial disease (Surf1, Complex I, Cox10, Polg), three patients with NGLY1 deficiency and four normal controls were used for the study. All samples were obtained with informed consent and approved by the Stanford IRB. Fibroblasts were maintained in DMEM medium containing 8.3 mM glucose and supplemented with 10% fetal bovine serum (FBS)(Fisher Scientific), 1% Penicillin-Streptomycin (10,000 U/mL)(Life Technologies), 1% glutaMAX (Life Technologies), 1% uridine (5 mg/ml) and 1% pyruvate (11 mg/ml) at 37° C., 5% CO2. For the screening of various compounds, 15×10^3 cells/500 ul media were seeded in quadruplets on 24 well microtiter plates. The following day, the medium was removed, wells washed with PBS and replaced with a mitochondrial stressor media containing DMEM, 1% Penicillin-Streptomycin (10,000 U/mL)(Life Technologies), 10% FCS (Fisher Scientific), 1 mM Galactose (Sigma Aldrich), and 25 μM sodium azide with or without the following compounds: 1 mM AICAR (Medchem Express), 1 mM Metformin (Sigma Aldrich), 100 μM PT1 (Santa Cruz Biotechnology), 100 μ[…] Express). Following treatment with the various compounds, tissue cultures were analyzed for growth, oxygen consumption rate, and ATP levels. Methods: Cell growth was measured by a fluorometric method using Calcein AM (Anaspec). Mitochondrial stressor media was removed, wells washed with PBS and then incubated with 500 ul/well of 800 nM Calcein AM in PBS for 30 min at 37 C, 5% CO2. Cell viability was measured by values obtained using a 485 nm excitation with the Flouroskan Ascent Microplate Fluorometer (Thermo Scientific).
# [6] = tested on: POLG-deficient fibroblasts; experiment: as above; type: cell-based, human; details: FIG. 2D
# Description: as §1
# [7] = tested on: COX10-deficient fibroblasts; experiment: as above; type: cell-based, human; details: FIG. 2B
# Description: as §1
# [8] = tested on: ischemic stroke model; experiment: Ischemic stroke model, transient middle cerebral artery occlusion, TTC staining; type: in vivo, mice; details: PT1 100 mg/kg IP vs vehicle
# Description: Methods: To generate an ischemic stroke model, ischemic lesions were induced by transiently occluding the middle cerebral artery for 45 minutes, followed by reperfusion. Mice were then injected intraperitoneally with either 100 mg/kg of PT1 or vehicle in two doses, 1 hour and 24 hours post-occlusion, and sacrificed one hour later for terminal tissue collection. Isolated brains were placed in cold saline for 20 minutes, sliced in seven coronal slices (2 mm thick), and stained in a 1.0% 2,3,5-triphenyltetrazolium chloride (TTC) solution in saline at 37° C. for 30 minutes. The stained brain tissues were fixed in 10% formalin in phosphate-buffered saline. The images were captured using a CCD camera (Panasonic Corporation, Japan) and the unstained damaged areas were defined as infarcted tissue and were quantified using Image Pro Plus 4.1 software (Media Cybernetics, Silver Spring, MD).
# [9] = tested on: PGC-1α; experiment: Gene expression after PT1 treatment; type: cell-based, human; details: 48 hr treatment with PT1; FIG. 5B
# [10] = tested on: POLG deficient fibroblasts; experiment: ATP levels, CellTiter-Glo ATP Assay; type: cell-based, human; details: PT1 48 hrs vs DMSO
# Description: (§2) Methods: SURF1, POLG, and NGLY1 patient cells were supplemented with PT1 or DMSO (untreated control) for 48 hrs (n=3) and ATP levels measured by the CellTiter-Glo ATP Assay or for 72 hrs (n=3) and ROS levels were measured by the CellROX Deep Red Flow Cytometry Assay. Results were normalized to total protein concentration. Data are represented as the mean±standard error of the mean. Statistical significance was measured to p<0.05.
# [11] = tested on: NGLY1 deficient fibroblasts; experiment: ATP levels, CellTiter-Glo ATP Assay; type: cell-based, human; details: PT1 48 hrs vs DMSO
# Description: as §2
smiles,measurement,setting,value
Cc1cc(-c2ccc(C=C3SC(=S)N(c4ccc(Cl)c(C(=O)O)c4)C3=O)o2)c([N+](=O)[O-])cc1C [PT1],decrease in pAMPK levels,[1],63%
same,time of peak pAMPK levels post PT1 treatment,[2],24 hours
same,time of return of pAMPK levels to baseline,[2],48 hours
same,time by which pAMPK levels increase post PT1 treatment,[2]; pAMPK normalized to actin,≤ 2 hours
same,cell viability,[3],increased viability
same,reduction of lipofuscin levels,[4],approximately 36%
same,survival / viability,[5],largest improvement
same,survival / viability,[6],improves survival; also recorded: significantly improved survival
same,survival / viability,[7],improves survival; also recorded: significantly improved survival
same,percent of infarct tissue in brain,[8]; FIG. 10A,marked improvement
same,infarcted regions in TTC-stained brain slices,"[8]; FIGS. 10B-10C, 100 mg/kg",much lower amounts of ischemic tissue; also recorded: reduction in size of the infarcted regions
same,increase in expression of PGC-1α,[9],2.4 fold
same,increase in ATP production / content,[10],36%
same,increase in ATP production / content,[11],40%
